Laboratory results as given in patent publication US9518052B2, “Pyrazolopyridines and pyrazolopyrimidines” (Pfizer Inc., priority 2014, dated 2016).
Structures can show the parent of a compound that is named as a salt.

What was measured:
JAK2 = JAK2 (Homo sapiens (Human), UniProt O60674); assay: JAK Caliper Enzyme Assay at 1 mM ATP (JAK2); assay type: biochemical; settings: Caliper assay at 1 mM ATP
JAK3 = JAK3 (Homo sapiens (Human), UniProt P52333); assay: JAK Caliper Enzyme Assay at 1 mM ATP (JAK3); assay type: biochemical; settings: Caliper assay at 1 mM ATP
Sequence of JAK3 (P52333 whole entry, species assumed): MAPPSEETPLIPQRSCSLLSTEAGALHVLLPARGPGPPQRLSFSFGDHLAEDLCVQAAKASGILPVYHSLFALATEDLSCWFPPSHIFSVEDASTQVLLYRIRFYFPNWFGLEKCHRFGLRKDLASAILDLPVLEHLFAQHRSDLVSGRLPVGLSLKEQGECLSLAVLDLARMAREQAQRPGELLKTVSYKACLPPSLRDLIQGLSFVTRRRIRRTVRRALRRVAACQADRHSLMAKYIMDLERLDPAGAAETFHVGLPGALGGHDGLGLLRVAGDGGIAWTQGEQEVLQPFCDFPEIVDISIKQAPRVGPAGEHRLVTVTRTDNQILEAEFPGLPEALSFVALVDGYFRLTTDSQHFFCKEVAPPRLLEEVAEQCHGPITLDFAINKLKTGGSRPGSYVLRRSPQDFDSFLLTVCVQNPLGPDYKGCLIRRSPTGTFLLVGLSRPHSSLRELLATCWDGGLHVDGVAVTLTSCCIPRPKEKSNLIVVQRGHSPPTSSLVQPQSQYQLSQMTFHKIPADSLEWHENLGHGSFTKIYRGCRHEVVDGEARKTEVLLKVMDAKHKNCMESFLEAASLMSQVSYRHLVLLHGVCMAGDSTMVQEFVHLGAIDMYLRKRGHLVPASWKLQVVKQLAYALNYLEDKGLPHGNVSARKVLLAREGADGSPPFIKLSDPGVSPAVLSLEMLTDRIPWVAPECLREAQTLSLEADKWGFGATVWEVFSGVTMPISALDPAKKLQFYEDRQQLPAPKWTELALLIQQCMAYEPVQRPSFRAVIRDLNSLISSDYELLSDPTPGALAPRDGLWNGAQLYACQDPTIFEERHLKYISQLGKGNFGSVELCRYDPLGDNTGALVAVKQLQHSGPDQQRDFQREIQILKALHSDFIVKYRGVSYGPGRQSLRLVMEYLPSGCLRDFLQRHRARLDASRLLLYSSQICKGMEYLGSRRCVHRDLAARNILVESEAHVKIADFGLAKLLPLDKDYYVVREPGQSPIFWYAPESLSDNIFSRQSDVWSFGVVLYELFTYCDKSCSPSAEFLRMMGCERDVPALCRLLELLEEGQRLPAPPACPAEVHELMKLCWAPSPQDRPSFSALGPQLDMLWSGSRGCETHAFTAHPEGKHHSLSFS

TYK2 = TYK2 (Homo sapiens (Human), UniProt P29597); assay: JAK Caliper Enzyme Assay at 1 mM ATP (TYK2); assay type: biochemical; settings: Caliper assay at 1 mM ATP
Sequence of TYK2 (P29597 whole entry, species assumed): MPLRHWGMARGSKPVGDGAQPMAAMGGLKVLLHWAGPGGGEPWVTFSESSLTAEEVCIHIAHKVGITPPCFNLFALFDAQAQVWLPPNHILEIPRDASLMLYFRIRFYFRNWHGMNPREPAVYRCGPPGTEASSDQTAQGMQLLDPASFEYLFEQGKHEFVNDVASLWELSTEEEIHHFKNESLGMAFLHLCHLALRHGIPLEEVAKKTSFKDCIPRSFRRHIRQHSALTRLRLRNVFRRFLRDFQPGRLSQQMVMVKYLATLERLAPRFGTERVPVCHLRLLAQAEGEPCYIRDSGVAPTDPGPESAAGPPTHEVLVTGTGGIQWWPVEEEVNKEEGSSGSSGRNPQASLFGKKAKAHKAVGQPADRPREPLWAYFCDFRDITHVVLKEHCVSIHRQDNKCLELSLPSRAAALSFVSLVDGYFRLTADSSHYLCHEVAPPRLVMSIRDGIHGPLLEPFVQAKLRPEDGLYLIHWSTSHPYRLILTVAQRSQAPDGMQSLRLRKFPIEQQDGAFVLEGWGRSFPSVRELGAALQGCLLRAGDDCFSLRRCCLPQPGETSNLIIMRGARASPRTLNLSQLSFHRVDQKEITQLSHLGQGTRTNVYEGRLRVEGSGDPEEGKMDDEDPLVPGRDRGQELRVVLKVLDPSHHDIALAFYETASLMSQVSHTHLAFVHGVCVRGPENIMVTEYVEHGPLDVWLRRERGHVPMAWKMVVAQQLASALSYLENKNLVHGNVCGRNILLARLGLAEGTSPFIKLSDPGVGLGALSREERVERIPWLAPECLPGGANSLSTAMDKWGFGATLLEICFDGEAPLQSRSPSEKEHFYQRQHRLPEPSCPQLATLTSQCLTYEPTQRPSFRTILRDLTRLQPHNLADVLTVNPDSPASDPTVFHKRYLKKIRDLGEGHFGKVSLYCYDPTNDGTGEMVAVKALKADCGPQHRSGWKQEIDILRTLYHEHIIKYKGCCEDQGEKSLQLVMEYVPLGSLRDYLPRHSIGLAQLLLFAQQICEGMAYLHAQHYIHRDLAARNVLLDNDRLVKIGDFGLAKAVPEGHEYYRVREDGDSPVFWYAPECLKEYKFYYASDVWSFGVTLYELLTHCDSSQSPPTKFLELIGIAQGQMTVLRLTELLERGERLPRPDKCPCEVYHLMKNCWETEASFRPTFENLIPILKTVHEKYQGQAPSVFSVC

[1] = system: rhIFNγ stimulated STAT-3 phosphorylation in the A549 human epithelial cell line; assay: A549 Cell Assay: Inhibition of pSTAT3; assay type: cell-based; settings: A549 cells
Experimental: A549 Cell Assay: Inhibition of pSTAT3
An assay measuring the efficacy of JAK inhibitors on the functional response of recombinant human interferon γ (rhIFNγ) stimulated STAT-3 phosphorylation in the A549 human epithelial cell line.
A549 cells (ATCC #CCL-185), were plated at 30,000 cells/well in 96 well flat bottomed tissue culture plates (BD#353072) in 200 μL of growth medium (DMEM, Pfizer media prep, with 10% Fetal Bovine Serum, Sigma #F4135, 2 mM L-Glutamine, Pfizer media prep, 100 U/mL penicillin, Pfizer media prep, and 200 μg/ml streptomycin, Pfizer media prep), and cultured at 37° C., 5% CO2 incubator for 18 hours. Growth medium was removed by vacuum aspiration (V&P Scientific #vp187 bp-60), and 90 μL of pre-warmed assay medium (DMEM with 0.2% BSA, Miltenyi #130-091-376) was added to each well and incubated for 15 minutes at 37° C. 10 μL of vehicle control or test compound (final concentration range of 0.3 nM to 10 μM with 0.1% DMSO) was added to the cells. Plates were incubated at 37° C. for 1 hour. After compound incubation, 10 μL of 220 ng/mL recombinant human IFNγ (R&D Systems #285-IF, final rhIFNγ concentration of 20 ng/mL) was added to the cells and plates were incubated for 30 minutes at 37° C. Wells containing A549 cells, medium with 0.1% DMSO and no rhIFNγ were used as background controls. After rhIFNγ stimulation, media was aspirated from each well and 35 μL/well of iced-cold MSD lysis buffer containing protease and phosphatase inhibitors from Phospho-STAT3 Tyr705 assay kit (Meso-Scale Discovery #K150DID) was added to each well. Plates were incubated at 4° C. with shaking for 30 minutes. Cell lysates were assayed following the MSD Phospho-STAT3 Tyr705 assay kit protocol to detect pSTAT3.
Data were collected and transformed into percent inhibition and calculated using the following formula: […]

JAK1 = JAK1 (Homo sapiens (Human), UniProt P23458); assay: JAK Caliper Enzyme Assay at 1 mM ATP (JAK1); assay type: biochemical; settings: Caliper assay at 1 mM ATP
Sequence of JAK1 (P23458 whole entry, species assumed): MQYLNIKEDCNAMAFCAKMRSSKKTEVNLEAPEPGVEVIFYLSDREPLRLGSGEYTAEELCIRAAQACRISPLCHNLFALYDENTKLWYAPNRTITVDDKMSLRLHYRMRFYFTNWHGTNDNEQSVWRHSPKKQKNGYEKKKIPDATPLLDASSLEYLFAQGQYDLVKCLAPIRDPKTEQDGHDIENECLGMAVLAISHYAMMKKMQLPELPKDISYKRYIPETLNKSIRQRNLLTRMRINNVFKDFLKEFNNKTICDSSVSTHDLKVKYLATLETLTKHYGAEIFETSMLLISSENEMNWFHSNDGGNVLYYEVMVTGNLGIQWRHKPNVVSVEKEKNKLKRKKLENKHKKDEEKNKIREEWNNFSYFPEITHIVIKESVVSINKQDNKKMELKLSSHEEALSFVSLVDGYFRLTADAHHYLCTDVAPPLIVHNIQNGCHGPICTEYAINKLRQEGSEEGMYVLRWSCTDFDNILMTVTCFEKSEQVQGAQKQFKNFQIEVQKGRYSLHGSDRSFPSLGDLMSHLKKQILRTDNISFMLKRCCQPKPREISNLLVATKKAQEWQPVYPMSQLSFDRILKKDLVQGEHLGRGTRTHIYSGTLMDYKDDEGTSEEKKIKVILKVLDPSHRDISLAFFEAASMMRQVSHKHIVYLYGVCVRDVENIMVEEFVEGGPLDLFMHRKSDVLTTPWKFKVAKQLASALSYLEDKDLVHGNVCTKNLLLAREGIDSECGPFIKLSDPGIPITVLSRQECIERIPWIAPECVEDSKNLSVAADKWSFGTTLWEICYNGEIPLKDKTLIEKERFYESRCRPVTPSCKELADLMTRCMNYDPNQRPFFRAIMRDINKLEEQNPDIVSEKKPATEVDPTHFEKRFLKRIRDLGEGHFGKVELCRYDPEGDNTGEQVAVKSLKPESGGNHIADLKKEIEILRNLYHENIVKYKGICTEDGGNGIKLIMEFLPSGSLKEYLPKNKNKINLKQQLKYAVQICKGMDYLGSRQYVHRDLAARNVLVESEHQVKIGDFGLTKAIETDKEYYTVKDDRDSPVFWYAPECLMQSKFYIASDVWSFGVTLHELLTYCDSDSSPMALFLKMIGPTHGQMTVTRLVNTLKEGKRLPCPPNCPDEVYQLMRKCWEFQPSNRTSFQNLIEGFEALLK

Sequence of JAK2 (O60674 whole entry, species assumed): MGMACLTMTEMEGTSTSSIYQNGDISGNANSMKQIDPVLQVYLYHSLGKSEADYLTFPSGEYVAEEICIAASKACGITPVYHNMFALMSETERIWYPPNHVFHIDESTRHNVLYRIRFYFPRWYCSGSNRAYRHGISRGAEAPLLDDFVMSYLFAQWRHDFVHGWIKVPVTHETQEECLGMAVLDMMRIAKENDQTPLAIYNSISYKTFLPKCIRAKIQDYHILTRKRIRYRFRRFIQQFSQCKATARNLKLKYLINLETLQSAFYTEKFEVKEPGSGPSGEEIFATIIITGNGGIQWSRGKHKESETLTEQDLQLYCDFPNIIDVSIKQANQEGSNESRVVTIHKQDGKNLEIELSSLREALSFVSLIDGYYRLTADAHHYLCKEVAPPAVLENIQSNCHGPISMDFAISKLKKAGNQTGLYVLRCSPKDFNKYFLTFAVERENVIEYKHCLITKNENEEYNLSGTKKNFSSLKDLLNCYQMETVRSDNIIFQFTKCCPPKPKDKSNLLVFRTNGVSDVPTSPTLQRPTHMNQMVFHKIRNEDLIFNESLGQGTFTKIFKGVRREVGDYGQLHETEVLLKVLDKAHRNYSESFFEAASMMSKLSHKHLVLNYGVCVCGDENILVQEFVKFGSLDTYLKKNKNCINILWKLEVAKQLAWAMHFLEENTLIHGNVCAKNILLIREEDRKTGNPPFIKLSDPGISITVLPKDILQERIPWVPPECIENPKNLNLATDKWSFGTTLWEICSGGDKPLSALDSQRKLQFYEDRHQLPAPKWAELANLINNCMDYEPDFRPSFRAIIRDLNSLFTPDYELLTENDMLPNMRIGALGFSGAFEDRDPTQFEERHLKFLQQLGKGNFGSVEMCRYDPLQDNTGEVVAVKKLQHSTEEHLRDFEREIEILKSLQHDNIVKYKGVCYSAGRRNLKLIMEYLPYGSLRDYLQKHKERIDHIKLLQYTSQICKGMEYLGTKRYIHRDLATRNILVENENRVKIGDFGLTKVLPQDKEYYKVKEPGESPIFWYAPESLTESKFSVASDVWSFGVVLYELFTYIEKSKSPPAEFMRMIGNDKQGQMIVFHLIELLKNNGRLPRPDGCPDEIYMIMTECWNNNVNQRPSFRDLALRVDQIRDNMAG

Compound	IC50 (JAK2)	IC50 (JAK3)	IC50 (TYK2)	IC50 [1]	IC50 ([1]; Homo sapiens)	IC50 (JAK1)
6-[5-fluoro-4-hydroxy-2-(2,2,2-trifluoroethyl)phenyl]-4-({5-methoxy-2-[methyl(methylsulfonyl)amino]benzyl}amino)-N-methyl-1H-pyrazolo[4,3-c]pyridine-3-carboxamide [Example 50]	10.7 nM	47.4 nM	10.5 nM	321 nM		
CNC(=O)c1n[nH]c2cc(-c3cc(F)c(O)cc3CC(F)(F)F)nc(NCc3ccc(O)cc3N(C)S(C)(=O)=O)c12 [Example 33, 6-[5-fluoro-4-hydroxy-2-(2,2,2-trifluoroethyl)phenyl]-4-({4-hydroxy-2-[methyl(methylsulfon-yl)amino]benzyl}amino)-N-methyl-1H-pyrazolo[4,3-c]pyridine-3-carboxamide]				490 nM		
CNC(=O)c1n[nH]c2cc(-c3cc(F)c(O)cc3CC(F)(F)F)nc(NCc3cc(O)ccc3N(C)S(=O)(=O)c3ccccc3)c12 [Example 35, 6-[5-fluoro-4-hydroxy-2-(2,2,2-trifluoroethyl)phenyl]-4-({5-hydroxy-2-[methyl(phenylsulfon-yl)amino]benzyl}amino)-N-methyl-1H-pyrazolo[4,3-c]pyridine-3-carboxamide]				437 nM		
CN(c1cc(O)ccc1CNc1nc(-c2cc(F)c(O)cc2CC(F)(F)F)cc2[nH]nc(C(N)=O)c12)S(C)(=O)=O [Example 41, 6-[5-Fluoro-4-hydroxy-2-(2,2,2-trifluoroethyl)phenyl]-4-({4-hydroxy-2-[methyl(methylsulfonyl)amino]benzyl}amino)-1H-pyrazolo[4,3-c]pyridine-3-carboxamide]					1180 nM	
CNC(=O)c1n[nH]c2cc(-c3cc(F)c(O)cc3CC(F)(F)F)nc(NCc3cc(O)ccc3N(C)S(=O)(=O)c3cccnc3)c12 [Example 54, 6-[5-fluoro-4-hydroxy-2-(2,2,2-trifluoroethyl)phenyl]-4-({5-hydroxy-2-[methyl(pyridin-3-ylsulfonyl)amino]ben-zyl}amino)-N-methyl-1H-pyrazolo[4,3-c]pyridine-3-carboxamide]				135 nM		
CNC(=O)c1n[nH]c2cc(-c3cc(F)c(O)cc3CC(F)(F)F)nc(NCc3ccccc3N(C)S(=O)(=O)N(C)C)c12 [Example 57]	93.4 nM	409 nM	149 nM	60.4 nM		21.1 nM
CNC(=O)c1n[nH]c2cc(-c3cc(F)c(O)cc3CC(F)(F)F)nc(NCc3ccccc3N(C)S(=O)(=O)c3cn(C)cn3)c12 [Example 59]	23.5 nM	112 nM	22.6 nM	290 nM		5.3 nM
CN(c1ccc(O)cc1CNc1nc(-c2cc(F)c(O)cc2CC(F)(F)F)cc2[nH]nc(C(=O)Nc3ccc(NCCO)nc3)c12)S(C)(=O)=O [Example 75, 6-[5-Fluoro-4-hydroxy-2-(2,2,2-trifluoroethyl)phenyl]-N-{6-[(2-hydroxyethyl)amino]pyridin-3-yl}-4-({5-hydroxy-2-[methyl(methylsulfonyl)amino]benzyl}amino)-1H-pyrazolo[4,3-c]pyridine-3-carboxamide]					1350 nM	
Cc1cnc(N(C)S(C)(=O)=O)c(CNc2nc(-c3cc(F)c(O)cc3CC(F)(F)F)cc3[nH]nc(C(N)=O)c23)c1 [Example 86, 6-(5-fluoro-4-hydroxy-2-(2,2,2-trifluoroethyl)phenyl)-4-(((5-methyl-2-(N-methylmethylsulfonam-ido)pyridin-3-yl)methyl)amino)-1H-pyrazolo[4,3-c]pyridine-3-carboxamide]				425 nM		
CNC(=O)c1n[nH]c2nc(-c3cc(F)c(O)cc3CC(F)(F)F)nc(NCc3ccccc3N(C)S(C)(=O)=O)c12 [Example 94, 6-(5-Fluoro-4-hydroxy-2-(2,2,2-trifluoroethyl)phenyl)-N-methyl-4-((2-(N-methylmethylsulfonamido)benzyl)amino)-1H-pyrazolo[3,4-d]pyrimidine-3-carboxamide]	27.7 nM	71.2 nM	503 nM		126 nM	5.4 nM
CN(c1ccc(O)cc1CNc1nc(-c2cc(F)c(O)cc2CC(F)(F)F)nc2[nH]nc(C(N)=O)c12)S(C)(=O)=O [Example 97, 6-(5-Fluoro-4-hydroxy-2-(2,2,2-trifluoroethyl)phenyl)-4-((5-hydroxy-2-(N-methylmethylsulfonamido)benzyl)amino)-1H-pyrazolo[3,4-d]pyrimidine-3-carboxamide]					2070 nM	
CNC(=O)c1n[nH]c2nc(-c3cc(F)c(O)cc3CC(F)(F)F)nc(NCc3nccnc3N(C)S(C)(=O)=O)c12 [Example 100, 6-(5-Fluoro-4-hydroxy-2-(2,2,2-trifluoroethyl)phenyl)-N-methyl-4-(((3-(N-methylmethyl-sulfonamido)pyrazin-2-yl)methyl)amino)-1H-pyrazolo[3,4-d]pyrimidine-3-carboxamide]					6880 nM	
CNC(=O)c1n[nH]c2nc(-c3cc(F)c(O)cc3CC(F)(F)F)nc(NCc3ccccc3N(CCO)S(C)(=O)=O)c12 [Example 102, 6-(5-fluoro-4-hydroxy-2-(2,2,2-trifluoroethyl)phenyl)-4-((2-(N-(2-hydroxyethyl)methylsulfonamido)benzyl)amino)-N-methyl-1H-pyrazolo[3,4-d]pyrimidine-3-carboxamide]					3360 nM	
CNC(=O)c1n[nH]c2nc(-c3cc(F)c(O)cc3CC(F)(F)F)nc(NCc3cc(F)ccc3N(C)S(C)(=O)=O)c12 [Example 104, 4-((5-fluoro-2-(N-methylmethylsulfon-amido)benzyl)amino)-6-(5-fluoro-4-hydroxy-2-(2,2,2-trifluoroethyl)phenyl)-N-methyl-1H-pyrazolo[3,4-d]pyrimidine-3-carboxamide]	66.1 nM	113 nM	1380 nM	292 nM		10.4 nM
CCN(c1ccc(O)cc1CNc1nc(-c2cc(F)c(O)cc2CC(F)(F)F)nc2[nH]nc(C(=O)NC)c12)S(=O)(=O)c1ccccc1 [Example 105, 4-((2-(N-Ethylphenylsulfonamido)-5-hydroxybenzyl)amino)-6-(5-fluoro-4-hydroxy-2-(2,2,2-trifluoroethyl)phenyl)-N-methyl-1H-pyrazolo[3,4-d]pyrimidine-3-carboxamide]					7020 nM	
CCc1cc(O)c(F)cc1-c1cc2[nH]ncc2c(N(CCc2ccc(NS(C)(=O)=O)cc2)Cc2ccccc2N(C)S(C)(=O)=O)n1 [Example 130, N-[2-({[6-(2-ethyl-5-fluoro-4-hydroxyphenyl)-1H-pyrazolo[4,3-c]pyridin-4-yl](2-{4-[(methylsulfon-yl)amino]phenyl}ethyl)amino}methyl)phenyl]-N-methylmethanesulfonamide hydrochloride]				729 nM		
CCc1cc(O)cc(C)c1-c1cc2[nH]ncc2c(NCc2ccccc2N(C)S(C)(=O)=O)n1 [Example 156, N-(2-(((6-(2-Ethyl-4-hydroxy-6-methylphenyl)-1H-pyrazolo[4,3-c]pyridin-4-yl)amino)methyl)phenyl)-N-methylmethanesulfonamide]		177 nM	10000 nM		72.4 nM	25.5 nM
CSCCNc1nc(-c2cc(F)c(O)cc2CC(F)(F)F)cc2[nH]nc(-c3nc4c([nH]3)CCN(Cc3ccccc3)C4)c12 [Example 161, 4-[3-(5-Benzyl-4,5,6,7-tetrahydro-1H-imidazo[4,5-c]pyridin-2-yl)-4-{[2-(methylsulfanyl)-ethyl]amino}-1H-pyrazolo[4,3-c]pyridin-6-yl]-2-fluoro-5-(2,2,2-trifluoroethyl)phenol]					> 10000 nM	
CN(c1ccccc1CNc1nc(-c2cc(F)c(O)cc2CC(F)(F)F)nc2[nH]nc(-c3nnc(C4CCN(C(=O)CN5CCCC5)CC4)[nH]3)c12)S(C)(=O)=O [Example 168, N-(2-{[(6-[5-Fluoro-4-hydroxy-2-(2,2,2-trifluoroethyl)phenyl]-3-{5-[1-(pyrrolidin-1-ylacetyl)piperidin-4-yl]-4H-1,2,4-triazol-3-yl}-1H-pyrazolo[3,4-d]pyrimidin-4-yl)amino]methyl}phenyl)-N-methylmethanesulfonamide]					13300 nM	
CN(c1ccc(O)cc1CNc1nc(-c2cc(F)c(O)cc2CC(F)(F)F)nc2[nH]nc(-c3nc4c([nH]3)CCNC4)c12)S(C)(=O)=O [Example 169, N-{2-[({6-[5-Fluoro-4-hydroxy-2-(2,2,2-trifluoroethyl)phenyl]-3-(4,5,6,7-tetrahydro-1H-imidazo[4,5-c]pyridin-2-yl)-1H-pyrazolo[3,4-d]pyrimidin-4-yl}amino)methyl]-4-hydroxyphenyl}-N-methylmethanesulfonamide]					> 10000 nM	
